The values that follow come from patent US4546176A, “7-Carboxymethoxyphenylacetamido-3-cephem derivatives and antibacterial preparations containing the same” (Eisai Co., Ltd., priority 1982, dated 1985).

Values after ≈ are worked out from the molar mass of the structure shown.

In one series the test system is Staph. aureus 209-P. Put plainly: Antibacterial activities (MIC), Staph. aureus 209-P. The format is cell-based. Conditions: Staphylococcus aureus. From the text:
(§1) (1) Antibacterial activities (MIC):

In the next series the test system is Kleb. pneumoniae EK-6. Kind of series: Antibacterial activities (MIC), Kleb. pneumoniae EK-6. The format is cell-based. The note with it: Klebsiella pneumoniae, EK6.
Text: as §1

The nature of series [1]: Acute toxicity LD50 (mouse, oral). Conditions: in vivo. The text has this: The acute toxicity values [LD50 (mouse, oral)] of the following compounds were each 4 g/kg or greater;
The subject of another series is Proteus vulgaris E-18. Kind of series: Antibacterial activities (MIC), Proteus vulgaris E-18 (lactamase producing). The format is cell-based. Conditions: E18; Proteus vulgaris E-18, lactamase producing bacteria.
Text: as §1
*Lactamase producing bacteria.

The test system of the next series is Ser. marcescens ES-75. Put plainly: Antibacterial activities (MIC), Ser. marcescens ES-75. Conditions: Serratia marcescens, ES75. The format is cell-based.
Text: as §1

The next series deals with Pseud. aeruginosa EP-01. Put plainly: Antibacterial activities (MIC), Pseud. aeruginosa EP-01. The format is cell-based. The note with it: Pseudomonas aeruginosa, EP01.
Text: as §1

The next series can be described thus: Solubility in water. The format is physicochemical. The note with it: in distilled water at 25° C.
Another series has as its system Escher. coli NIHJ. Kind of series: Antibacterial activities (MIC), Escher. coli NIHJ. The format is cell-based. Conditions: Escherichia coli.
Text: as §1

Another series relates to Proteus morganii EP-14. Put plainly: Antibacterial activities (MIC), Proteus morganii EP-14. The note with it: Morganella morganii, EP14. The format is cell-based.
Text: as §1

Series [2] in a line: Urinary excretion rate in mice. The format is in vivo, ICR male mice. The note with it: mouse, sc, 20 mg/kg subcutaneous, urine up to 6 hours, bioassay. As for the experimental part:
ICR male mice (body weight: 20-30 g) were used. Each compound was dissolved in an M/15 phosphate buffer (pH 7.0) and administered in an amount of 20 mg/kg by the subcutaneous route. Urine was collected up to 6 hours after the administration. The concentration of the compound was determined by the bioassey technique (the agar-well method) using Pseudomonas aeruginosa as a test microorganism. On the basis of the thus-determined concentration, its excreted amount was obtained. The urinary excretion rate was then calculated from the excreted amount based on the amount administered.

Consider `CO[C@@]1(NC(=O)[C@H](NC(=O)c2c(C)oc3cc(O)c(O)cc3c2=O)c2ccc(OCC(=O)O)cc2)C(=O)N2C(C(=O)[O-])=C(C[n+]3ccc(C(N)=O)cc3)CS[C@@H]21` [Example 50, Sodium 7β-[D-2-(4-carboxymethoxyphenyl)-2-(6,7-dihydroxy-2-methyl-4-oxo-4H-1-benzopyran-3-carboxamido)acetamido]-7α-methoxy-3-(4-carbamoylpyridinium)methyl-3-cephem-4-carboxylate], for which the MIC against Staph. aureus 209-P came to 100 µg/mL; against Kleb. pneumoniae EK-6, 0.1 µg/mL; with Proteus vulgaris E-18, 3.13 µg/mL; with Ser. marcescens ES-75, 0.8 µg/mL; in the series on Pseud. aeruginosa EP-01, 0.4 µg/mL; with Escher. coli NIHJ, 1.56 µg/mL. Moreover, 12.5 µg/mL was the least that counted as inhibitory against Proteus morganii EP-14 (MIC). In series [1], the LD50 is at least 4000 mg/kg. Further, the solubility in the series “Solubility in water” is at least 300 mg/mL.
In the case of `CO[C@@]1(NC(=O)[C@H](NC(=O)c2c(C)oc3cc(O)c(O)cc3c2=O)c2ccc(OCC(=O)O)cc2)C(=O)N2C(C(=O)[O-])=C(C[n+]3ccccc3)CS[C@@H]21` [Example 48, Sodium 7β-[D-2-(4-carboxymethoxyphenyl)-2-(6,7-dihydroxy-2-methyl-4-oxo-4H-1-benzopyran-3-carboxamido)acetamido]-7α-methoxy-3-pyridiniummethyl-3-cephem-4-carboxylate], the MIC with Staph. aureus 209-P is 100 µg/mL; against Kleb. pneumoniae EK-6, at most 0.05 µg/mL; in the series with Proteus vulgaris E-18 it was 1.56 µg/mL; against Ser. marcescens ES-75, 0.1 µg/mL; against Pseud. aeruginosa EP-01, 0.2 µg/mL; with Escher. coli NIHJ, 0.2 µg/mL. This molecule also gave an MIC against Proteus morganii EP-14 of 6.25 µg/mL. For the same molecule, the LD50 in series [1] is at least 4000 mg/kg. Besides, the dose excreted at 6 h in [2] was 45%. This molecule returned a solubility in the series “Solubility in water” of at least 300 mg/mL.
Turning to `CO[C@@]1(NC(=O)[C@H](NC(=O)c2coc3cc(O)c(O)cc3c2=O)c2ccc(OCC(=O)O)cc2)C(=O)N2C(C(=O)O)=C(CSc3nnnn3CC(=O)O)CS[C@@H]21` [Example 30, Trisodium 7β-[D-2-(4-carboxymethoxyphenyl)-2-(6,7-dihydroxy-4-oxo-4H-1-benzopyran-3-carboxamido)-acetamido]-7α-methoxy-3-(1-carboxymethyl-5-tetrazolyl)-thiomethyl-3-cephem-4-carboxylate], the MIC against Staph. aureus 209-P was 100 µg/mL; with Kleb. pneumoniae EK-6, at most 0.05 µg/mL; in the series on Proteus vulgaris E-18 it was 0.8 µg/mL; with Ser. marcescens ES-75 it was 0.2 µg/mL; with Pseud. aeruginosa EP-01, 0.4 µg/mL; in the series on Escher. coli NIHJ, 0.8 µg/mL. The molecule further gave an MIC in the series with Proteus morganii EP-14 of 6.25 µg/mL. In series [1], this molecule returned an LD50 of at least 4000 mg/kg.
With `CO[C@@]1(NC(=O)[C@H](NC(=O)c2coc3cc(O)c(O)cc3c2=O)c2ccc(OCC(=O)O)cc2)C(=O)N2C(C(=O)[O-])=C(C[n+]3ccc(C(N)=O)cc3)CS[C@@H]21` [Example 51, Sodium 7β-[D-2-(4-carboxymethoxyphenyl)-2-(6,7-dihydroxy-4-oxo-4H-1-benzopyran-3-carboxamido)-acetamido]-7α-methoxy-3-(4-carbamoylpyridinium)-methyl-3-cephem-4-carboxylate], the minimum inhibitory concentration (MIC) with Staph. aureus 209-P was 50 µg/mL; against Kleb. pneumoniae EK-6 it was at most 0.05 µg/mL; in the series on Proteus vulgaris E-18, 3.13 µg/mL; with Ser. marcescens ES-75 it was 0.8 µg/mL; against Pseud. aeruginosa EP-01 it was 0.4 µg/mL; with Escher. coli NIHJ, 1.56 µg/mL. In the series on Proteus morganii EP-14, this molecule came in with an MIC of 25 µg/mL. The dose excreted at 6 h in series [2] came to 16%. In “Solubility in water”, this molecule came in with a solubility of at least 300 mg/mL.
Regarding `CO[C@@]1(NC(=O)[C@H](NC(=O)c2c(C)oc3cc(O)c(O)cc3c2=O)c2ccc(OCC(=O)O)cc2)C(=O)N2C(C(=O)O)=C(CSc3nnnn3CC(=O)O)CS[C@@H]21` [Example 25], the MIC was 100 µg/mL (≈ 121 µM) in the series on Staph. aureus 209-P; at most 0.05 µg/mL in the series with Kleb. pneumoniae EK-6; 0.4 µg/mL (≈ 0.483 µM) with Proteus vulgaris E-18; 0.1 µg/mL (≈ 0.121 µM) in the series with Ser. marcescens ES-75; 0.4 µg/mL (≈ 0.483 µM) against Pseud. aeruginosa EP-01; 0.4 µg/mL (≈ 0.483 µM) against Escher. coli NIHJ. This molecule displayed an MIC with Proteus morganii EP-14 of 3.13 µg/mL (≈ 3.78 µM). For the same molecule, the LD50 in series [1] is at least 4000 mg/kg. Moreover, the dose excreted at 6 h in series [2] is 20%. For the same molecule, the solubility in “Solubility in water” is at least 300 mg/mL.

Usually MIC stands for the smallest concentration in the dilution series that meets the test's criterion for growth inhibition. High values mean a less susceptible organism, low ones a more susceptible organism. The LD50 is the dose expected to kill half of the subjects tested. A higher LD50 goes with a less toxic substance. What is called solubility is how much of the substance goes into solution per volume. The low end stands for little dissolved substance, the high end for much dissolved substance.
